Patent US20260347372A1, “SMALL MOLECULE INHIBITORS OF KRAS G12D MUTANT” (MERCK SHARP & DOHME LLC, priority 2023, published 2026)

Columns and labels:
KRAS G12D = KRAS G12D (Homo sapiens, UniProt P01116, G12D); assay: SOS-catalyzed nucleotide exchange assay, KRAS G12D (Procedure A); format: biochemical; settings: guanine nucleotide exchange (GNE)
Method in brief: (§1)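 60 min cpd preinc. w/ RAS–Bodipy-GDP–Tb-SA complex; + hSOS/GTP (3 mM final), RT. G12C 3 nM RAS/40 nM SOS; WT, G12D 1 nM/40 nM; 60 min rxn. G13D 1.25 nM, no SOS, 30 min rxn. HEPES pH 7.5, 10 mM MgCl2. Ratio 520/495, norm. to DMSO/max-inhibitor ctrls.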

KRAS WT = KRAS WT (Homo sapiens, UniProt P01116); assay: SOS-catalyzed nucleotide exchange assay, KRAS WT (Procedure A); format: biochemical; settings: GNE
KRAS WT, sequence (P01116 with tags, fused parts or gaps isoform P01116-2): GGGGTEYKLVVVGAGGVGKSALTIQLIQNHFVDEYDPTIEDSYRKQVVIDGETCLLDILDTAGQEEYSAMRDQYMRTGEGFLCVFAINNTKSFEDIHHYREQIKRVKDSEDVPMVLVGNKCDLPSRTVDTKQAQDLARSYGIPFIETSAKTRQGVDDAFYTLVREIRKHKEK
Method in brief: as §1

KRAS G12C = KRAS G12C (Homo sapiens, UniProt P01116, C118S/C51S/C80L/G12C); assay: SOS-catalyzed nucleotide exchange assay, KRAS G12C (Procedure A); format: biochemical; settings: GNE
KRAS G12C, sequence (P01116 with tags, fused parts or gaps isoform P01116-2 G12C/C51S/C80L/C118S): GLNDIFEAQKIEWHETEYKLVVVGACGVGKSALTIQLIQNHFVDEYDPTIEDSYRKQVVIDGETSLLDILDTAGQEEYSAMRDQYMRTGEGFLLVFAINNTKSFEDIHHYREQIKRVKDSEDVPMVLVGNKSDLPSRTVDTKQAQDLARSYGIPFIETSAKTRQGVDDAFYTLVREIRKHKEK
Method in brief: as §1

KRAS G12V = KRAS G12V (Homo sapiens, UniProt P01116, G12V); assay: SOS-catalyzed nucleotide exchange assay, KRAS G12V (Procedure A); format: biochemical; settings: GNE
KRAS G12V, sequence (P01116 with tags, fused parts or gaps isoform P01116-2 G12V): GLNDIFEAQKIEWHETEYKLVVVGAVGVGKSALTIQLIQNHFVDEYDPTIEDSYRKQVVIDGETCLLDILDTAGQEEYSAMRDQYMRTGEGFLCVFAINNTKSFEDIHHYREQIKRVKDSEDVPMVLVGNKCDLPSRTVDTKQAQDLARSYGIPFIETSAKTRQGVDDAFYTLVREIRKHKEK
Method in brief: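 Biotinylated KRAS G12V was loaded with Bodipy-GDP alongside Terbium-streptavidin to form a TR-FRET complex, which was preincubated with compounds for 60 minutes in 384-well plates. Human SOS protein and unlabeled GTP were then added for 90 minutes, giving final concentrations of 1.25 nM KRAS-G12V, 160 nM SOS and 3 mM GTP. The 520/495 nm emission ratio was read on an Envision.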

KRAS G13D = KRAS G13D (Homo sapiens, UniProt P01116, G13D); assay: SOS-catalyzed nucleotide exchange assay, KRAS G13D (Procedure A); format: biochemical; settings: GNE
KRAS G13D, sequence (P01116 with tags, fused parts or gaps isoform P01116-2 G13D): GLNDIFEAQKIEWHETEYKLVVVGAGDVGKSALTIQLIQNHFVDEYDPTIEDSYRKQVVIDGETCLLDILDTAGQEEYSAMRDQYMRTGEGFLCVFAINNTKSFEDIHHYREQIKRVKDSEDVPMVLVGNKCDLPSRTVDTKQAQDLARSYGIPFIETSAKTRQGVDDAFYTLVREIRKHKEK
Method in brief: as §1

HRAS = HRAS (Homo sapiens, UniProt P01112); assay: SOS-catalyzed nucleotide exchange assay, HRAS (Procedure A); format: biochemical; settings: GNE
HRAS, sequence (P01112 with tags, fused parts or gaps): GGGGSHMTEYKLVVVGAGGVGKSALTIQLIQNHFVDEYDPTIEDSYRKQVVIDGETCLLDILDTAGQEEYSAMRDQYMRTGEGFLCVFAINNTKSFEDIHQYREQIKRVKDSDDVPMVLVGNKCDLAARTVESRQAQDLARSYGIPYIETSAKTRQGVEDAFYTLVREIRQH
Method in brief: as §1

NRAS = NRAS (Homo sapiens, UniProt P01111); assay: SOS-catalyzed nucleotide exchange assay, NRAS (Procedure A); format: biochemical; settings: GNE
NRAS, sequence (P01111 with tags, fused parts or gaps): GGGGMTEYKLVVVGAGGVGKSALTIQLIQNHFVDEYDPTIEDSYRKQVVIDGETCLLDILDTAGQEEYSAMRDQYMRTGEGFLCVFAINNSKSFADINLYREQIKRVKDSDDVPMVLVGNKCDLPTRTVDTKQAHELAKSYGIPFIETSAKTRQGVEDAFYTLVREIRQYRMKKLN
Method in brief: as §1

PANC08.13 cells = molecular target: T1, PANC08.13 cells (Homo sapiens, UniProt P01116, G12D); assay: Cellular phospho-ERK assay, PANC08.13 cells (KRAS G12D); format: cell-based; settings: 2 hours, read-out: PANCO 813 pERK IC50
T1 construct: p-ERK/total ERK AlphaSureFire read-out
T1 sequence (P01116 1-188 isoform P01116-2 G12D): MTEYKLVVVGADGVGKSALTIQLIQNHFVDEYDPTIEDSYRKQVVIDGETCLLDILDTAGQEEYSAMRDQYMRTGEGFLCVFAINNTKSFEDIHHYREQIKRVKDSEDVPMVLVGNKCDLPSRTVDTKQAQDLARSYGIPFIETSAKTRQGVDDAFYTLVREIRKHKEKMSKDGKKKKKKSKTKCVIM
Experimental: Procedure for Cellular Phospho-ERK Assay in KRAS Wild Type and Mutant (G12D, G12V) Cell Lines
PANC08.13 cells (ATCC® CRL-2551™), containing homozygous KRAS-G12D activating mutation, were cultured in growth medium made of RPMI1640-GlutaMAX™-I (ThermoFisher Scientific 61870) containing 15% heat inactivated fetal bovine serum (ThermoFisher Scientific 10091148)). AsPC-1 cells (ATCC® CRL-1682™), containing homozygous KRAS-G12D activating mutation, were cultured in T150 flask in growth medium (RPMI medium 1640-GlutaMAX™-I (ThermoFisher Scientific 61870) containing 10% fetal bovine serum (ThermoFisher Scientific 10091148)).
Cells for the assay were harvested in growth medium after TrypLE (ThermoFisher scientific 12604021) digestion and were seeded in a 384-well collagen coated cell culture plate (Corning 356702) at a density of 10,000-15,000 cells/20 μL/well, and incubated at 37° C., 5% CO2 overnight. The compound (with 10 mM stock concentration) dose-response titrations were prepared [30 μM final ERK detection assay concentration and 1:3 dilutions, 10-point dose response] and appropriate amounts (270 nL) of test compounds were dispensed in a 384-well intermediate plate using an Echo 550 liquid handler. 30 μL/well of RPMI medium 1640-GlutaMAX™-I was added to the intermediate plate and the contents of the intermediate plate (10 μL/well) were then transferred to the 384-well collagen coated cell culture plate, which was incubated at 37° C., 5% CO2 for 2 hours. After removal of medium from the collagen coated cell culture plate, cells were lysed in lysis buffer from Alpha SureFire® Ultra™ Multiplex p-ERK and total ERK assay kit (PerkinElmer MPSU-PTERK) containing Halt™ Protease and Phosphatase inhibitor cocktail (ThermoFisher Scientific 78446) at room temperature with constant shaking at 300 rpm for 30 minutes. The cell lysates were then transferred to an OptiPlate-384 plate (PerkinElmer 6005620), and the phosphorylation of ERK (p-ERK) and total ERK levels were detected by Alpha SureFire® Ultra™ Multiplex p-EEK kit and total ERK assay kit (PerkinElmer MPSU-PTERK) following the manufacturer's protocol. Assay plates were read on a EnVision Multimode Plate Reader (PerkinElmer), and the ratio of p-ERK vs. total ERK in each well was used as the final readout. Dose response curves were analyzed using a 4-parameter logistic model to calculate IC50 values using Spotfire software.

AsPC-1 cells = molecular target: T2, AsPC-1 cells (Homo sapiens, UniProt P01116, G12D); assay: Cellular phospho-ERK assay, AsPC-1 cells (KRAS G12D); format: cell-based; settings: 2 hours, read-out: AsPC1 pERK IC50
T2 construct: p-ERK/total ERK AlphaSureFire read-out
T2 sequence (P01116 1-188 isoform P01116-2 G12D): as above
Method in brief: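 Compound was titrated 10-point in 3-fold steps (top 30 μM) on KRAS G12D homozygous pancreatic lines PANC08.13 and AsPC-1 for 2 h at 37 °C. The p-ERK/total ERK ratio was measured by multiplex AlphaLISA SureFire and fitted with a 4-parameter logistic model to give IC50.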

KRAS G12D, sequence (P01116 with tags, fused parts or gaps isoform P01116-2 G12D): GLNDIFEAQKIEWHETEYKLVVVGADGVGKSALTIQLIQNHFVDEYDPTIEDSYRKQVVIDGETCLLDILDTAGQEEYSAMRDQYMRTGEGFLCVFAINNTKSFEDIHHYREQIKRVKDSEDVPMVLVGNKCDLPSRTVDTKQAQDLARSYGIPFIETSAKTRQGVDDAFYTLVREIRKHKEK

In the case of `Cc1cc2[nH]nc(C#N)c2c(-c2nccc3c4c(N5C[C@H]6CC[C@@H](C5)N6)nc(OC[C@@]56CCCN5C[C@H](F)C6)nc4n(C)c23)c1C(F)(F)F` (single isomer, unassigned) [Ex-2], the IC50 (KRAS G12D) is reported as 0.0436 µM, the IC50 (KRAS WT) is reported as > 11.1 µM and the IC50 (KRAS G12C) is reported as > 11.1 µM. For the same compound, the IC50 (KRAS G12V) was > 11.1 µM, the IC50 (KRAS G13D) was 2.36 µM and the IC50 (HRAS) was > 11.1 µM. For the same compound, the IC50 (NRAS) was > 11.1 µM, the IC50 (PANC08.13 cells) was 1.63 µM and the IC50 (AsPC-1 cells) was 15.1 µM.
`Cc1cc2[nH]ncc2c(-c2nccc3c4c(N5C[C@H]6CC[C@@H](C5)N6)nc(OC[C@@]56CCCN5C[C@H](F)C6)nc4n(C)c23)c1C(F)F` (single isomer, unassigned) [Ex-3] showed an IC50 (KRAS G12D) of 0.0975 µM, an IC50 (KRAS WT) of 9.31 µM and an IC50 (KRAS G12C) of 0.919 µM. The IC50 (KRAS G12V) was 5.14 µM, the IC50 (KRAS G13D) was 3.32 µM and the IC50 (HRAS) was > 11.1 µM. For the same compound, the IC50 (NRAS) was > 11.1 µM, the IC50 (PANC08.13 cells) was 0.244 µM and the IC50 (AsPC-1 cells) was 0.965 µM.
In the case of `C#Cc1c(F)ccc2cc(O)cc(-c3nccc4c5c(N6C[C@H]7CC[C@@H](C6)N7)nc(OC[C@@]67CCCN6C[C@H](F)C7)nc5n(C)c34)c12` [Ex-8, 4-(4-((1R,5S)-3,8-diazabicyclo[3.2.1]octan-3-yl)-2-(((2R,7aS)-2-fluorotetrahydro-1H-pyrrolizin-7a(5H)-yl)methoxy)-9-methyl-9H-pyrido[4′,3′:4,5]pyrrolo[2,3-d]pyrimidin-8-yl)-5-ethynyl-6-fluoronaphthalen-2-ol], the IC50 (KRAS G12D) is reported as 0.00181 µM, the IC50 (KRAS WT) is reported as 0.0481 µM and the IC50 (KRAS G12C) is reported as 0.0252 µM. For the same compound, the IC50 (KRAS G12V) was 0.0626 µM, the IC50 (KRAS G13D) was 0.0178 µM and the IC50 (HRAS) was > 11.1 µM. For the same compound, the IC50 (NRAS) was > 11.1 µM, the IC50 (PANC08.13 cells) was 0.0638 µM and the IC50 (AsPC-1 cells) was 0.138 µM.
`C#Cc1cccc2cccc(-c3nccc4c3sc3nc(OC[C@@]56CCCN5C[C@H](F)C6)nc(N5C[C@H]6CC[C@@H](C5)N6)c34)c12` [Ex-10, 4-((1R,5S)-3,8-diaza-bicyclo[3.2.1]oc-tan-3-yl)-8-(8-ethynylnaphthalen-1-yl)-2-(((2R,7aS)-2-fluoro-tetrahydro-1H-pyrrolizin-7a(5H)-yl)methoxy)pyri-do[4′,3′:4,5]thi-eno[2,3-d]py-rimidine] was tested, and the IC50 (KRAS G12D) was 0.00711 µM, the IC50 (KRAS WT) was 4.93 µM and the IC50 (KRAS G12C) was 0.647 µM. The IC50 (KRAS G12V) was 6.88 µM, the IC50 (KRAS G13D) was 0.604 µM and the IC50 (HRAS) was > 11.1 µM. For the same compound, the IC50 (NRAS) was > 11.1 µM, the IC50 (PANC08.13 cells) was 0.192 µM and the IC50 (AsPC-1 cells) was 0.398 µM.
For `Cc1cc2[nH]ncc2c(-c2nccc3c2sc2nc(OC[C@@]45CCCN4C[C@H](F)C5)nc(N4C[C@H]5CC[C@@H](C4)N5)c23)c1C(F)(F)F` [Ex-12, 4-((1R,5S)-3,8-diazabicyclo[3.2.1]octan-3-yl)-2-(((2R,7aS)-2-fluorotetrahydro-1H-pyrrolizin-7a(5H)-yl)methoxy)-8-(6-methyl-5-(trifluoromethyl)-1H-indazol-4-yl)pyrido[4′,3′:4,5]thieno[2,3-d]pyrimidine], the IC50 (KRAS G12D) was 0.00641 µM, the IC50 (KRAS WT) was 5.81 µM and the IC50 (KRAS G12C) was 0.589 µM. For the same compound, the IC50 (KRAS G12V) was 2.07 µM, the IC50 (KRAS G13D) was 0.723 µM and the IC50 (HRAS) was > 11.1 µM. For the same compound, the IC50 (NRAS) was > 11.1 µM, the IC50 (PANC08.13 cells) was 0.0889 µM and the IC50 (AsPC-1 cells) was 0.2 µM.
`FC(F)c1c(Cl)cc2[nH]ncc2c1-c1nccc2c1sc1nc(OC[C@@]34CCCN3C[C@H](F)C4)nc(N3C[C@H]4CC[C@@H](C3)N4)c12` [Ex-13, 4-((1R,5S)-3,8-diazabicyclo[3.2.1]octan-3-yl)-8-(6-chloro-5-(difluoromethyl)-1H-indazol-4-yl)-2-(((2R,7aS)-2-fluorotetrahydro-1H-pyrrolizin-7a(5H)-yl)methoxy)pyrido[4′,3′:4,5]thieno [2,3-d]pyrimidine] gave an IC50 (KRAS G12D) of 0.0137 µM, an IC50 (KRAS WT) of 9.55 µM and an IC50 (KRAS G12C) of 0.665 µM. For the same compound, the IC50 (KRAS G12V) was 8.35 µM, the IC50 (KRAS G13D) was 1.83 µM and the IC50 (HRAS) was > 11.1 µM. For the same compound, the IC50 (NRAS) was > 11.1 µM, the IC50 (PANC08.13 cells) was 0.221 µM and the IC50 (AsPC-1 cells) was 0.582 µM.
Work on `Cc1cc2[nH]nc(C#N)c2c(-c2nccc3c2sc2nc(OC[C@@]45CCCN4C[C@H](F)C5)nc(N4C[C@H]5CC[C@@H](C4)N5)c23)c1C(F)(F)F` [Ex-19, 4-(4-((1R,5S)-3,8-diazabicy-clo[3.2.1]oc-tan-3-yl)-2-(((2R,7aS)-2-fluoro-tetrahydro-1H-pyrrolizin-7a(5H)-yl)methoxy)pyri-do[4′,3′:4,5]thieno [2,3-d]pyrimidin-- 8-yl)-6-methyl-5-(trifluoromethyl)-- 1H-indazole-3-carbonitrile] yielded an IC50 (KRAS G12D) of 0.0234 µM, an IC50 (KRAS WT) of 9.94 µM and an IC50 (KRAS G12C) of 0.755 µM. For the same compound, the IC50 (KRAS G12V) was > 11.1 µM, the IC50 (KRAS G13D) was 1.05 µM and the IC50 (HRAS) was > 11.1 µM. The IC50 (NRAS) was > 11.1 µM, the IC50 (PANC08.13 cells) was 0.25 µM and the IC50 (AsPC-1 cells) was 2.2 µM.
